The values below come from ChEMBL document CHEMBL1154508, “Discovery of GSK345931A: An EP(1) receptor antagonist with efficacy in preclinical models of inflammatory pain” (Bioorg Med Chem Lett, 2009).

Data set [1] is described as follows: Ratio of drug level in brain to blood in complete Freund's adjuvant-induced rat inflammatory pain model at 2 mg/kg, po after 1 hr. The class given is ADME, organism-based. More on the design: dose 2 mg/kg, route oral.
The next data set has as its system Liver microsomes. As to the kind of experiment: Metabolic stability assessed as intrinsic clearance per gram of rat liver microsomes. Type of data set: ADME, Microsome.
Data set [2] in a line: Half life in rat at 1 mg/kg, iv. Also noted: dose 1 mg/kg, route intravenous. To be noted: in vivo. Type of data set: ADME, organism-based.
Data set [3] in a line: Volume of distribution at steady state in cynomolgus monkey at 1 mg/kg, iv. The class given is ADME, organism-based, Macaca fascicularis. Also noted: dose 1 mg/kg, route intravenous. To be noted: in vivo, read-out: Vdss.
Data set [4] is described as follows: Drug level in blood of sub-chronic rat joint pain efficacy model satellite animal group at 5 mg/kg bid measured on day 5 after 1 hr post dose. The class given is ADME, organism-based. More on the design: dose 5 mg/kg. To be noted: read-out: Drug uptake.
Data set [5] is described as follows: Drug level in blood of sub-chronic rat joint pain efficacy model treatment group at 5 mg/kg bid measured on day 5 after 1 hr post dose. The class given is ADME, organism-based. Also noted: dose 5 mg/kg. To be noted: read-out: Drug uptake.
For data set [6], the target named is T1, Prostaglandin E2 receptor EP1 subtype (Homo sapiens, UniProt P34995).
T1 sequence (P34995 whole entry): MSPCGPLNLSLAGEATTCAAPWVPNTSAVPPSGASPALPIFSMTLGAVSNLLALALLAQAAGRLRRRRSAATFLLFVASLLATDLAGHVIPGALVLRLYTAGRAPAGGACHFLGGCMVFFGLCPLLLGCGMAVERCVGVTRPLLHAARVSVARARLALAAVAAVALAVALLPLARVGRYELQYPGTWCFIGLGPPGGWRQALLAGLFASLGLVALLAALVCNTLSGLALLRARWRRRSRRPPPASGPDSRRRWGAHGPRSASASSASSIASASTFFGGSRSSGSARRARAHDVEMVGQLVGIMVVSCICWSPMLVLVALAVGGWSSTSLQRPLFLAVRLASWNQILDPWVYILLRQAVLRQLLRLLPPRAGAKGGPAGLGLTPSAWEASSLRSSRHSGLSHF
As to the kind of experiment: Binding affinity to EP1 receptor.

Data set [7] can be described thus: Partition ratio of fraction unbound in rat brain to blood. Type of data set: ADME, tissue-based.
Data set [8] is described as follows: Ratio of drug level in brain to blood in rat at 0.28 mg/kg/hr, iv for 18 hrs. Type of data set: ADME, organism-based. Also noted: route intravenous.
Data set [9] in a line: Ratio of drug level in brain to blood of sub-chronic rat joint pain efficacy model satellite animal group at 5 mg/kg bid measured on day 5. Type of data set: ADME, organism-based. More on the design: dose 5 mg/kg.
Data set [10] is described as follows: Drug level in rat brain at 0.28 mg/kg/hr, iv for 18 hrs. Type of data set: ADME, organism-based. Also noted: route intravenous. To be noted: read-out: Drug uptake.
Data set [11] can be described thus: Ratio of drug level in brain to blood in complete Freund's adjuvant-induced rat inflammatory pain model at 10 mg/kg, po after 1 hr. Type of data set: ADME, organism-based. More on the design: dose 10 mg/kg, route oral.
Data set [12] is described as follows: Solubility in fasted state simulated intestinal fluid after 2 hrs. The class given is physicochemical.
In data set [13] the target is T2, Prostaglandin E2 receptor EP3 subtype (Homo sapiens, UniProt P43115).
T2 sequence (P43115 whole entry): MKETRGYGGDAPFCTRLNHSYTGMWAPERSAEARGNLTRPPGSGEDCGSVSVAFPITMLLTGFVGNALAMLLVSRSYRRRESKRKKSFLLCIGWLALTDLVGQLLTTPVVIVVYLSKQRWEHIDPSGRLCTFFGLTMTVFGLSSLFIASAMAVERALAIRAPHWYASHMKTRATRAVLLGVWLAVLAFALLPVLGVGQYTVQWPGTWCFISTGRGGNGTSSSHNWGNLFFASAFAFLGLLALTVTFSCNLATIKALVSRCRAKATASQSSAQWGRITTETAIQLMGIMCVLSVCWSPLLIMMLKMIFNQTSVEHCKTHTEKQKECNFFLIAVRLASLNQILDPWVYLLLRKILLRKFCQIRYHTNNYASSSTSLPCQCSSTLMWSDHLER
As to the kind of experiment: Activity at EP3 receptor by FLIPR method.

Data set [14] can be described thus: Drug level in brain of complete Freund's adjuvant-induced rat inflammatory pain model at 1 mg/kg, po after 1 hr. Type of data set: ADME, organism-based. Also noted: dose 1 mg/kg, route oral. The settings on record: read-out: Drug uptake.
The nature of data set [15]: Ratio of drug level in brain to blood of sub-chronic rat joint pain efficacy model treatment group at 5 mg/kg bid measured on day 5 after 1 hr post dose. Type of data set: ADME, organism-based. More on the design: dose 5 mg/kg.
For data set [16], the target named is T3, Peroxisome proliferator-activated receptor alpha (Homo sapiens, UniProt Q07869).
T3 sequence (Q07869 whole entry): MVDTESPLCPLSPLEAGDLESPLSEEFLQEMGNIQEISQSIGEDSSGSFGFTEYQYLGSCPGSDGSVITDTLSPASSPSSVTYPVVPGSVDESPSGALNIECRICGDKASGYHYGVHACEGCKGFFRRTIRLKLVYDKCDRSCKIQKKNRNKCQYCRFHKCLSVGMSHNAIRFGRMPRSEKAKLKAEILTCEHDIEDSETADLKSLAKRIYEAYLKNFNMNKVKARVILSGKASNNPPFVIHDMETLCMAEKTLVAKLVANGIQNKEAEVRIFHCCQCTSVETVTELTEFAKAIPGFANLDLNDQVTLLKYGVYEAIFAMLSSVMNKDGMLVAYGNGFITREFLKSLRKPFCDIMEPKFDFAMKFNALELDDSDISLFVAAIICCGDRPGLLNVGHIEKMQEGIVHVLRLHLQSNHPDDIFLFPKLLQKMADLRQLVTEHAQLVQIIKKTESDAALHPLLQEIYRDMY
In words: Activity at PPARalpha.

Structures are written as SMILES.

As to `CC(C)COc1ccc(Cl)cc1-c1ccccc1-c1cccc(C(=O)[O-])n1.[Na+]`, the Kp at 1 h in data set [1] is 0.22; in data set [11], 0.48; in [15], 0.57. Moreover, in the data set with Liver microsomes, the CL came out at 0.7 mL/min/g. For the same compound, the half-life in [2] was 210 min. Moreover, in data set [3], the Vd turned out to be 0.5 L/kg. The concentration at 1 h in [4] was 1660 nM; in data set [5] it was 1630 nM; in [14], 317 nM. In [6], the IC50 is 15.8 nM. The Kbb in data set [7] came to 0.93. Also, the Kp at 18 h in data set [8] was 0.33. In addition, the Kp at 5 day in [9] was 0.54. The concentration at 18 h in data set [10] was found to be 550 nM. The solubility at 2 h in data set [12] is 1030 µg/mL. Also, in data set [13], the Ki was 2000 nM. This compound gave an EC50 in [16] above 10 µM.
